Source: publication PMC8395317, “The Simple Method of Preparation of Highly Carboxylated Bacterial Cellulose with Ni- and Mg-Ferrite-Based Versatile Magnetic Carrier for Enzyme Immobilization” (International Journal of Molecular Sciences, 2021)

Tested on: T1, phospholipase A (PLA, Lecitase Ultra)
T1 construct: gene LIP; one fused chain: T. lanuginosus lipase N-terminal part (1-284) + F. oxysporum phospholipase A1 C-terminal part (285-339); commercial Lecitase Ultra (Sigma-Aldrich), used without further purification; free form
Experiment: p-nitrophenol release, absorbance […] nm, Michaelis-Menten nonlinear fit
Type: biochemical, Thermomyces lanuginosus
Settings: free enzyme; 0.1 to 1.2 mmol/L pNPB, 50 mmol/L phosphate pH 7.0, 0.004% Triton X-100, 30 °C

Km: 490 ± 100 µM
Structure (SMILES): CCCC(=O)Oc1ccc([N+](=O)[O-])cc1 [p-nitrophenyl-butyrate]
